pEC50, pIC50, pKi: −log10 of the molar value. Bounds are passed on as bounds.

The target of data set [1] is T1, 5-HT2B receptor (Homo sapiens, UniProt P41595). In words: (§1) Partial agonist activity at human 5-HT2B receptor expressed in HEK293 cells assessed as intracellular calcium mobilization by FLIPR analysis. The conditions noted are these: HEK293 cells expressing human 5-HT2B receptor. In kind it is cell-based. (Calcium assays in cells follow changes in intracellular calcium, usually with a dye or a luminescent sensor.)
T1 sequence (P41595 whole entry): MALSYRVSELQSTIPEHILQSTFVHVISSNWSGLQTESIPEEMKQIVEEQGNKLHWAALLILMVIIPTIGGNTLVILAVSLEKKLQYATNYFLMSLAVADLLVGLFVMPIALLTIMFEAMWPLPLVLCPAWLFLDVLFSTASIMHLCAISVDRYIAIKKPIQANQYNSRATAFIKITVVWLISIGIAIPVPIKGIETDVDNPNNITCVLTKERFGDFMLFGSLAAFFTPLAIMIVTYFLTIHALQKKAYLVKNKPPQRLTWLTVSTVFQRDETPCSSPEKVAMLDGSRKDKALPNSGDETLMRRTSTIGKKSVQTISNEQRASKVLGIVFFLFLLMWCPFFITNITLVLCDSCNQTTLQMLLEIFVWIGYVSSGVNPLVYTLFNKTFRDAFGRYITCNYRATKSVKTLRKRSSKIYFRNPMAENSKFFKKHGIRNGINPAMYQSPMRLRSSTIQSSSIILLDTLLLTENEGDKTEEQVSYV

In data set [2] the target is T1, 5-HT2B receptor. Briefly: (§2) Agonist activity at human 5-HT2B receptor transfected in CHO cell assessed as IP1 production incubated for 30 mins measured by HTRF detection method. In kind it is cell-based. Conditions: human, CHO cells transfected with human 5-HT2B receptor; call rule not given here.
Data set [3] addresses T2, 5-hydroxytryptamine receptor 2B (Homo sapiens, UniProt P41595). In words: Antagonist activity at human 5-HT2B receptor transfected in CHO cell assessed as decrease in 5-HT-induced IP1 production preincubated for 5 mins before 5-HT addition measured after 30 mins by HTRF detection method. The data set is classed as functional, cell-based.
Data set [4] concerns the target T2, 5-hydroxytryptamine receptor 2B. Briefly: Displacement of [125I](+/-)DOI from human 5-HT2B receptor transfected in CHO cell membrane after 60 mins by scintillation counting analysis. The data set is classed as cell membranes. (In general: Loss of bound radioactivity is the signal in a displacement assay; it reports binding, not function.)
The target is the same in data set [5]. The data set is described as §2. In kind it is cell-based. Conditions: for Activity: human, cho, 0.5 h.
For data set [6] the target is unchanged. The data set is described as §1. In kind it is cell-based. The conditions noted are these: hek293.
Data set [7] deals with 5-hydroxytryptamine receptor 2A (Homo sapiens, UniProt P28223). Briefly: Antagonist activity at human 5-HT2A receptor assessed as decrease in agonist-induced intracellular calcium mobilization preincubated for 10 mins prior to agonist addition measured by FLIPR analysis. The data set is classed as functional, cell-based.
5-hydroxytryptamine receptor 2A, sequence (P28223 whole entry): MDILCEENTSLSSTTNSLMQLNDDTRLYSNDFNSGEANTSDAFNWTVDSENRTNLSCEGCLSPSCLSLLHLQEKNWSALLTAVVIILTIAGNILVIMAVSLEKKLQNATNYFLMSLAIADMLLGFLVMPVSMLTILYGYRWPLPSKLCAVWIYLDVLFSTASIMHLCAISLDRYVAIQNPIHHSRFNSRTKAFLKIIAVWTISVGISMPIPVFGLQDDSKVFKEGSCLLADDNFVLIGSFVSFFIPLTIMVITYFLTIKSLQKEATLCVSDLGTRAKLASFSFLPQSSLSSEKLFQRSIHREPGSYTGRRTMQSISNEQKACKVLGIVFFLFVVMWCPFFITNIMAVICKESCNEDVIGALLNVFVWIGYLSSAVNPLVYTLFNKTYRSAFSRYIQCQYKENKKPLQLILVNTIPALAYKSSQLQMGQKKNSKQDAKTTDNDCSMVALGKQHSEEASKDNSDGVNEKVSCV
In data set [8] the target is D(2) dopamine receptor (Homo sapiens) (UniProt P14416). Briefly: Partial agonist activity at human D2 receptor transfected in HTLA cells measured after overnight incubation by luminescence counter analysis. The data set is classed as cell-based.
D(2) dopamine receptor (Homo sapiens), sequence (P14416 whole entry): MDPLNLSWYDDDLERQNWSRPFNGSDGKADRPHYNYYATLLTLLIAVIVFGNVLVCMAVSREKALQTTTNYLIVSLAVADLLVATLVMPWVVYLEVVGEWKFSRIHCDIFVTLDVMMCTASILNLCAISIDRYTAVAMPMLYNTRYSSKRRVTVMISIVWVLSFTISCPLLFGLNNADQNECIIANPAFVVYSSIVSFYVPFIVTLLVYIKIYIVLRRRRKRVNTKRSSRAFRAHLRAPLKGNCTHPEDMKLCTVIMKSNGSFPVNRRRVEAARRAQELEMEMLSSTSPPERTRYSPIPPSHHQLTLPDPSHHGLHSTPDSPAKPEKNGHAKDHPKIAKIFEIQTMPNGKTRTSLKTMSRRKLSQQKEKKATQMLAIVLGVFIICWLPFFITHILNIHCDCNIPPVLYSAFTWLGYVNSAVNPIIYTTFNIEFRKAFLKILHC

T2 sequence (P41595 whole entry): as the sequence (P41595 whole entry) above

On to `CN(C)CCCNC(=O)[C@@H]1C[C@@H]2c3cccc4c3c(cn4C)C[C@H]2N(C)C1`, for which the Emax (usually the size of the effect at its maximum, as opposed to the concentration needed) in data set [1] is under 12%. Besides, the Emax at 0.5 h in data set [2] was under 12%. For the same molecule, in data set [3], the pIC50 (as a rule, the IC50 on a negative log10 scale, so that one unit is a factor of ten) is 7.43 and the Kb (in general, the affinity of an antagonist, worked out from how it opposes an agonist) stood at 9.3 nM. The pKi (usually the negative decadic logarithm of the Ki, by convention in mol/L) in data set [4] is 9.01.

Take `C=CCN1C[C@H](C(=O)N(CCCN(C)C)C(=O)NCC)C[C@@H]2c3cccc4[nH]cc(c34)C[C@H]21` [CABERGOLINE]: the pEC50 (usually the EC50 on a negative log10 scale, so that one unit is a factor of ten) in data set [5] was 7.89. Further, in data set [2], the Emax at 0.5 h turned out to be 103%. In data set [4], this molecule showed a pKi of 8.85.

On to `C=CCN1C[C@H](C(=O)N(CCCN2CCOCC2)C(=O)NCC)C[C@@H]2c3cccc4[nH]cc(c34)C[C@H]21`, for which the pEC50 in data set [5] was 7.89. The Emax at 0.5 h in data set [2] came out at 106%. In addition, the negative logarithm of the Ki (pKi) in data set [4] is 8.15.

With `CCNC(=O)N(CCCN(C)C)C(=O)[C@@H]1C[C@@H]2c3cccc4c3c(cn4C)C[C@H]2N(C)C1`, the Activity result in data set [6] and in data set [5] was “Not Active” each time. Further, the pIC50 in data set [7] was 4.94; in data set [3] it was 7.66. Moreover, the antagonist equilibrium constant (Kb) in data set [3] turned out to be 5.6 nM. Besides, the Emax in data set [8] came to 50%. In addition, in data set [4], the negative-log Ki (pKi) is 9.00.

Take `COC(OC)[C@@H]1C[C@@H]2c3cccc4c3c(cn4C)C[C@H]2N(C)C1`: the Activity result in data set [6] is on record as “Not Active”. Moreover, the Activity entry in data set [5] is reported as “Not Active”. In data set [3], the negative-log IC50 (pIC50) is 7.89 and the Kb came out at 3.3 nM. The pKi in data set [4] was 9.27.

The values above are taken from ChEMBL document CHEMBL2321823, “Synthesis of novel analogs of cabergoline: improving cardiovascular safety by removing 5-HT2B receptor agonism” (ACS Med Chem Lett, 2013).
